The subject of this test is 782815-120-R-J1-PDC complex spheroid viability. The experiment in a line: Anticancer human tumor 782815-120-R-J1-PDC patient-derived colon adenocarcinoma cell line growth inhibition [RAS]. The note with it: for viability, T/C: stronger effect = lower value. Summed up: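 Tumour cells grown as complex spheroids with HUVEC endothelial cells and mesenchymal stem cells, treated with RAS pathway inhibitor combinations. Each agent spans half-log steps from near clinical Cmax, or 10 microM where Cmax is unknown.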

Our source for the IC50 and viability, T/C values is PubChem BioAssay AID2060887 (Molecular Pharmacology Branch, DTP, NCI, 2025).
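Note: spheroids exposed to compounds for 7 days before reading.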
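Throughout, for viability, T/C: 100% = DMSO vehicle control viability.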

Turning to `Cc1nc(N2CCC3(CC2)COC(C)C3N)c(CO)nc1Sc1ccnc(N)c1Cl` (stereo unspecified) + CCn1c(-c2cccnc2C(C)OC)c2c3cc(ccc31)N1CCOC(CC(NC(=O)C(C(C)C)N(C)C(=O)C3(F)CCN(C(=O)C#CC(C)(C)N(C)C)CC3)C(=O)N3CCCC(N3)C(=O)OCC(C)(C)C2)C1, the half-maximal inhibitory concentration (IC50) by setting is: (curve of first compound, second compound 0.000949 µM) more than 10 µM; (curve of first compound, second compound 0.003 µM) more than 10 µM; (curve of first compound, second compound 0.00949 µM) more than 10 µM; (curve of first compound, second compound 0.03 µM) more than 10 µM; (curve of first compound, second compound 0.0949 µM) more than 10 µM; (curve of first compound, second compound 0.3 µM) more than 10 µM. For the same compound, the viability, T/C (second compound 0.000949 µM, first compound 0.0316 µM) is 108%; the viability, T/C (second compound 0.000949 µM, first compound 0.1 µM) is 88%; the viability, T/C (second compound 0.000949 µM, first compound 0.316 µM) is 99.2%; the viability, T/C (second compound 0.000949 µM, first compound 1 µM) is 94.2%; the viability, T/C (second compound 0.000949 µM, first compound 3.16 µM) was 98.6%; the viability, T/C (second compound 0.000949 µM, first compound 10 µM) was 93.6%. The viability, T/C by setting is: (second compound 0.003 µM, first compound 0.0316 µM) 93.1%; (second compound 0.003 µM, first compound 0.1 µM) 95.5%; (second compound 0.003 µM, first compound 0.316 µM) 104%; (second compound 0.003 µM, first compound 1 µM) 94.5%; (second compound 0.003 µM, first compound 3.16 µM) 96%; (second compound 0.003 µM, first compound 10 µM) 95.7%. The viability, T/C is 95.2% (second compound 0.00949 µM, first compound 0.0316 µM); 95.7% (second compound 0.00949 µM, first compound 0.1 µM); 91.4% (second compound 0.00949 µM, first compound 0.316 µM); 98.9% (second compound 0.00949 µM, first compound 1 µM); 111% (second compound 0.00949 µM, first compound 3.16 µM); 94% (second compound 0.00949 µM, first compound 10 µM). Further, the viability, T/C was 101% (second compound 0.03 µM, first compound 0.0316 µM); 92.6% (second compound 0.03 µM, first compound 0.1 µM); 92.2% (second compound 0.03 µM, first compound 0.316 µM); 98.6% (second compound 0.03 µM, first compound 1 µM); 102% (second compound 0.03 µM, first compound 3.16 µM); 87.7% (second compound 0.03 µM, first compound 10 µM). The viability, T/C was 94.5% (second compound 0.0949 µM, first compound 0.0316 µM); 99.6% (second compound 0.0949 µM, first compound 0.1 µM); 103% (second compound 0.0949 µM, first compound 0.316 µM); 95.7% (second compound 0.0949 µM, first compound 1 µM); 101% (second compound 0.0949 µM, first compound 3.16 µM); 90.1% (second compound 0.0949 µM, first compound 10 µM). The viability, T/C by setting is: (second compound 0.3 µM, first compound 0.0316 µM) 93.3%; (second compound 0.3 µM, first compound 0.1 µM) 90.1%; (second compound 0.3 µM, first compound 0.316 µM) 87.5%; (second compound 0.3 µM, first compound 1 µM) 96%; (second compound 0.3 µM, first compound 3.16 µM) 101%; (second compound 0.3 µM, first compound 10 µM) 91%.

On to `CC1(O)CCCC1n1c(=O)c(C(F)F)cc2cnc(NC3CCN(S(C)(=O)=O)CC3)nc21` (stereo unspecified), for which the viability, T/C is, setting by setting: (compound 0.0316 µM) 70.6% [middle of 4 runs]; (compound 0.1 µM) 66.3% [middle of 4 runs]; (compound 0.316 µM) 64.3% [middle of 4 runs]; (compound 1 µM) 70% [middle of 4 runs]; (compound 3.16 µM) 63.5% [middle of 4 runs]; (compound 10 µM) 27% [middle of 4 runs]. Besides, the IC50 (curve of compound) is 4.69 µM [middle of 4 runs].

Turning to `CC(=O)OC12COC1CC(O)C1(C)C(=O)C(O)C3=C(C)C(OC(=O)C(O)C(NC(=O)OC(C)(C)C)c4ccccc4)CC(O)(C(OC(=O)c4ccccc4)C21)C3(C)C` (stereo unspecified), the viability, T/C reads like this: (compound 0.0316 µM) 35% [middle of 4 runs]; (compound 0.1 µM) 33.6% [middle of 4 runs]; (compound 0.316 µM) 25.9% [middle of 4 runs]; (compound 1 µM) 27.1% [middle of 4 runs]; (compound 3.16 µM) 27.9% [middle of 4 runs]; (compound 10 µM) 33.1% [middle of 4 runs]. Also, for the setting “curve of compound”, the IC50 is less than 0.0316 µM.

A word on the IC50: it is the concentration at which inhibition is half-maximal. For orientation: viability, T/C means the ratio of treated to control.
